From patent publication US6833456B2, “Indolyl-urea derivatives of thienopyridines useful as antiangiogenic agents, and methods for their use” (Agouron Pharmaceuticals, Inc., priority 2002, dated 2004)

Target: T1, unphosphorylated VEGF-R2Δ50 (FLVK) (Homo sapiens, UniProt P35968, DEL940-989/E990V)
T1 construct: VEGF-R2Δ50 contains residues 806-939 and 990-1171; made in house; host or cells: baculovirus/insect cell system
Test: VEGF-R2 coupled spectrophotometric assay, unphosphorylated construct (FLVK)
Format: biochemical
Settings: for inhibition at 0.05 µM: percent inhibition at 50 nM
From the text: This construct determines the ability of a test compound to inhibit tyrosine kinase activity. A construct (VEGF-R2Δ50) of the cytosolic domain of human vascular endothelial growth factor receptor 2 (VEGF-R2) lacking the 50 central residues of the 68 residues of the kinase insert domain was expressed in a baculovirus/insect cell system. Of the 1356 residues of full-length VEGF-R2, VEGF-R2Δ50 contains residues 806-939 and 990-1171, and also one point mutation (E990V) within the kinase insert domain relative to wild-type VEGF-R2. Autophosphorylation of the purified construct was performed by incubation of the enzyme at a concentration of 4 μM in the presence of 3 mM ATP and 40 mM MgCl2 in 100 mM HEPES, pH 7.5, containing 5% glycerol and 5 mM DTT, at 4° C. for 2 h. […] See Parast et al., Biochemistry, 37, 16788-16801 (1998).
The production of ADP from ATP that accompanies phosphoryl transfer was coupled to oxidation of NADH using phosphoenolpyruvate (PEP) and a system having pyruvate kinase (PK) and lactic dehydrogenase (LDH). The oxidation of NADH was monitored by following the decrease of absorbance at 340 nm ([…]=6.22 cm^−1 mM^−1) using a Beckman DU 650 spectrophotometer. Assay conditions for phosphorylated VEGF-R2Δ50 (indicated as FLVK-P in the tables below) were the following: 1 mM PEP; 250 μM NADH; 50 units of LDH/mL; 20 units of PK/mL; 5 mM DTT; […]; 1 mM ATP; and 25 mM MgCl2 in 200 mM HEPES, pH 7.5. Assay conditions for unphosphorylated VEGF-R2Δ50 (indicated as FLVK in the tables) were the following: 1 mM PEP; 250 μM NADH; 50 units of LDH/mL; 20 units of PK/mL; 5 mM DTT; […]; 3 mM ATP; and 60 mM MgCl2 and 2 mM MnCl2 in 200 mM HEPES, pH 7.5. Assays were initiated with 5 to 40 nM of enzyme. Ki values were determined by measuring enzyme activity in the presence of varying concentrations of test compounds. The percent inhibition at 50 nm (% inhibition@ 50 nm) was determined by linear least-squares regression analysis of absorbance as a function of time. The binding inhibitions were fitted to equation as described by Morrison. The data were analyzed using Enzyme Kinetic and Kaleidagraph software.

T1 sequence (P35968 with tags, fused parts or gaps DEL940-989/E990V limits assumed): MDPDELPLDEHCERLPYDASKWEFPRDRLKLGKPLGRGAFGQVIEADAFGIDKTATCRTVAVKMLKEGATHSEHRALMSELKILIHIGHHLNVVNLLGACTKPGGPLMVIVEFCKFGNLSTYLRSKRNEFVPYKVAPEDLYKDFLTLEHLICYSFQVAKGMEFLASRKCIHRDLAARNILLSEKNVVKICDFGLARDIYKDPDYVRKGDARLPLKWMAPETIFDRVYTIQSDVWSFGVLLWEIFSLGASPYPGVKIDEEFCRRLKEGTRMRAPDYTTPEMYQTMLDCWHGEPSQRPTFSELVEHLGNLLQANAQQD

| Ki [nM] | inhibition at 0.05 µM [%] | SMILES |
| --- | --- | --- |
| 37.8 | 20 | CCOC(=O)c1cc2ncnc(Nc3ccc4c(c3)cc(C)n4C(=O)NC)c2s1 [Example 11a, 4-(2-Methyl-1-methylcarbamoyl-1H-indol-5-ylamino)-thieno[3,2-b]pyrimidine-6-carboxylic acid ethyl ester] |
| 28.8 | 18 | CNC(=O)n1c(C)cc2cc(Nc3ncnc4cc(C(=O)N5CCC[C@H]5COC)sc34)ccc21 [Example 11b, 5-[6-(2-Methoxymethyl-pyrrolidine-1-carbonyl)-thieno[3,2-b]pyrimidin-4-ylamino]-2-methyl-indole-1-carboxylic acid methylamide] |
| 2.72 | 90 | CCC(=O)n1c(C)cc2cc(Oc3ccnc4cc(C(=O)N5CC[C@H](O)C5)sc34)ccc21 [Example 10b, (3S)-1-({7-[(2-Methyl-1-propionyl-1H-indol-5-yl)oxy]thieno[3,2-b]pyridin-2-yl}carbonyl)pyrrolidin-3-ol] |
| 34.3 | 14 | CCOC(=O)c1cc2c(Oc3ccc4c(c3)cc(C)n4C(=O)NC)ncnc2s1 [Example 12c, 4-(2-Methyl-1-methylcarbamoyl-1H-indol-5-yloxy)-thieno[2,3-b]pyrimidine-6-carboxylic acid ethyl ester] |
| 0.796 | 93 | CNC(=O)n1c(C)cc2cc(Nc3ccnc4cc(C(=O)N5CC(F)[C@H](OC)C5)sc34)ccc21 (stereo partly drawn) [Example 7a, 5-[(2-{[(4R)-3-Fluoro-4-methoxypyrrolidin-1-yl]carbonyl}thieno[3,2-b]pyridin-7-yl)amino]-N,2-dimethyl-1H-indole-1-carboxamide] |
| 1.91 | 97 | CNC(=O)n1c(C)cc2cc(Nc3ccnc4cc(C(=O)N5CCC5)sc34)ccc21 [Example 7c, 5-[2-(Azetidine-1-carbonyl)-thieno[3,2-b]pyridin-7-ylamino]-2-methyl-indole-1-carboxylic acid methylamide] |
| 0.521 | 89 | CO[C@H]1CCN(C(=O)c2cc3nccc(Oc4ccc5c(c4)cc(C)n5C(=O)NCCCCO)c3s2)C1 [Example 9a, 5-[2-(3S-Methoxy-pyrrolidine-1-carbonyl)-thieno[3,2-b]pyridin-7-yloxy]-2-methyl-indole-1-carboxylic acid (4-hydroxy-butyl)-amide] |
| 0.142 | 99 | CNC(=O)n1c(C)cc2cc(Oc3ccnc4cc(C(=O)N5CC(F)[C@@H](OC)C5)sc34)ccc21 (stereo partly drawn) [Example 8j, 5-[(2-{[(4S)-3-Fluoro-4-methoxypyrrolidin-1-yl]carbonyl}thieno[3,2-b]pyridin-7-yl)oxy]-N,2-dimethyl-1H-indole-1-carboxamide] |
| 0.35 | 99 | CCCNC(=O)n1c(C)cc2cc(Oc3ccnc4cc(C(=O)N5C[C@H](O)[C@@H](O)C5)sc34)ccc21 [Example 8f, 5-[(2-{[(3S,4S)-3,4-Dihydroxypyrrolidin-1-yl]carbonyl}thieno[3,2-b]pyridin-7-yl)oxy]-2-methyl-N-propyl-1H-indole-1-carboxamide] |
| 240 | 0 | CCOC(=O)c1cc2c(Nc3ccc4c(c3)cc(C)n4C(=O)NC)ncnc2s1 [Example 12a, 4-(2-Methyl-1-methylcarbamoyl-1H-indol-5-ylamino)-thieno[2,3-b]pyrimidine-6-carboxylic acid ethyl ester] |
| 0.109 | 99 | CNC(=O)n1c(C)cc2cc(Oc3ccnc4cc(C(=O)N5C[C@H](O)[C@@H](O)C5)sc34)ccc21 [Example 8d] |

Further lines, the molecule ahead of its results:

| SMILES | Ki [nM] | inhibition at 0.05 µM [%] |
| --- | --- | --- |
| CNC(=O)n1c(C)c(Cl)c2c(F)c(Oc3ccnc4cc(C(=O)N5CC[C@@H](OC)C5)sc34)ccc21 [Example 6g, 3-Chloro-4-fluoro-5-[2-(3R-methoxy-pyrrolidine-1-carbonyl)-thieno[3,2-b]pyridin-7-yloxy]-2-methyl-indole-1-carboxylic acid methylamide] | 1.23 | 97 |
| CNC(=O)n1c(C)cc2c(F)c(Oc3ccnc4cc(C(=O)N5CC[C@@H](OC)C5)sc34)ccc21 [Example 5l, 4-Fluoro-5-[2-(3R-methoxy-pyrrolidine-1-carbonyl)-thieno[3,2-b]pyridin-7-yloxy]-2-methyl-indole-1-carboxylic acid methylamide] | 0.189 | 99 |
| Cc1cc2cc(Oc3ccnc4cc(C(=O)N5C[C@@H](O)[C@@H](O)C5)sc34)ccc2n1C(=O)NC1CC1 [Example 4u, 5-[2-(3,4-cis-Dihydroxy-pyrrolidine-1-carbonyl)-thieno[3,2-b]pyridin-7-yloxy]-2-methyl-indole-1-carboxylic acid cyclopropylamide] | 0.2 | 98 |
| CNC(=O)n1c(C)cc2cc(Oc3ccnc4cc(C(=O)N5C[C@@H](O)[C@@H](O)C5)sc34)ccc21 [Example 4s, 5-[2-(3,4-cis-Dihydroxy-pyrrolidine-1-carbonyl)-thieno[3,2-b]pyridin-7-yloxy]-2-methyl-indole-1-carboxylic acid methylamide] | 0.085 | 98 |
| Cc1cc2c(F)c(Oc3ccnc4cc(C(=O)N5CC[C@H](O)C5)sc34)ccc2n1C(=O)NC1CC1 [Example 5j, 4-Fluoro-5-[2-(3S-hydroxy-pyrrolidine-1-carbonyl)-thieno[3,2-b]pyridin-7-yloxy]-2-methyl-indole-1-carboxylic acid cyclopropylamide] | 0.388 | 100 |
| C#CCNC(=O)n1c(C)cc2cc(Oc3ccnc4cc(C(=O)N5C[C@H](OC)[C@H](OC)C5)sc34)ccc21 [Example 4v, 5-[2-(3,4-cis-Dimethoxy-pyrrolidine-1-carbonyl)-thieno[3,2-b]pyridin-7-yloxy]-2-methyl-indole-1-carboxylic acid prop-2-ynylamide] | 0.416 | 99 |
| C#CCNC(=O)n1c(C)c(Cl)c2c(F)c(Oc3ccnc4cc(C(=O)N5CC[C@@H](OC)C5)sc34)ccc21 [Example 6h, 3-Chloro-4-fluoro-5-[2-((R)-3-methoxy-pyrrolidine-1-carbonyl)-thieno[3,2-b]pyridin-7-yloxy]-2-methyl-indole-1-carboxylic acid prop-2-ynylamide] | 0.142 | 98 |
| Cc1c(Cl)c2c(F)c(Oc3ccnc4cc(C(=O)N5CC[C@H](O)C5)sc34)ccc2n1C(=O)NC1CC1 [Example 6f, 3-Chloro-4-fluoro-5-[2-(3S-hydroxy-pyrrolidine-1-carbonyl)-thieno[3,2-b]pyridin-7-yloxy]-2-methyl-indole-1-carboxylic acid cyclopropyl-amide] | 0.154 | 98 |
| C#CCNC(=O)n1c(C)cc2cc(Oc3ccnc4cc(C(=O)N5C[C@@H](O)[C@@H](O)C5)sc34)ccc21 [Example 4w, 5-[2-(3,4-cis-Dihydroxy-pyrrolidine-1-carbonyl)-thieno[3,2-b]pyridin-7-yloxy]-2-methyl-indole-1-carboxylic acid prop-2-ynylamide] | 0.172 | 99 |
| CNC(=O)n1c(C)c(Cl)c2c(F)c(Oc3ccnc4cc(C(=O)N5CC[C@H](O)C5)sc34)ccc21 [Example 6e, 3-Chloro-4-fluoro-5-[2-(3S-hydroxy-pyrrolidine-1-carbonyl)-thieno[3,2-b]pyridin-7-yloxy]-2-methyl-indole-1-carboxylic acid methylamide] | 0.279 | 99 |
